Experimental data published in ChEMBL document CHEMBL1132851, “Synthesis of the repeating unit of the O-specific polysaccharide of Shigella sonnei and quantitation of its serologic activity” (Bioorg Med Chem Lett, 2000).

Test system: Shigella sonnei
Experiment: Compound was evaluated for the inhibition of hemolysis of Shigella sonneili polysaccharide-sensitized erythrocyte using a hyper-immune rabbit serum
Type: functional, organism-based

SMILES | IC50 [mM]
CO[C@@H]1OC(C(=O)O)[C@H](O)C(O)[C@@H]1NC(C)=O (stereo partly drawn) | 6.9
CO[C@@H]1OC(C)[C@H](N)C(O)[C@@H]1NC(C)=O (stereo partly drawn) | 9.8
CO[C@@H]1OC(C(=O)O)[C@H](O[C@@H]2OC(C)[C@H](N)C(O)[C@@H]2NC(C)=O)C(O)[C@@H]1NC(C)=O (stereo partly drawn) | 3.9
